# Results reported in patent US20210213104A1, “GLUCAGON AND GLP-1 CO-AGONISTS FOR THE TREATMENT OF CHRONIC KIDNEY DISEASE AND DIABETIC KIDNEY DISEASE IN TYPE 2 DIABETES” (MEDIMMUNE LIMITED, priority 2020, published 2021).
# Assays:
# Assay type in all cases: in vivo, human
# [1] = test system: subjects with T2DM and renal impairment; experiment: Phase 2a: fasting glucose blood test; conditions: ITT; for Fasting Glucose LS Mean Change / Fasting Glucose Change from Baseline, Mean / Fasting Glucose Change from Baseline, Median / Fasting Glucose Difference in LS Mean Change (vs Placebo): Day 1 to Day 32; for Fasting Glucose LS Mean Change: ANCOVA
# Experimental: Cotadutide was titrated from 50 μg up to 300 μg and administered once daily by subcutaneous (SC) injection over 32 days.
# Cotadutide was administered at 50 μg once daily for 4 days, followed by 100 μg daily for 7 days, 200 μg daily for 7 days, and 300 μg daily for 14 days (n=20). Placebo was administered one daily for 32 days (n=20). Cotadutide and placebo were administered in the morning. Dosing commenced following predose baseline vital signs, blood tests (including HbA1c), an electrocardiogram (ECG), body weight measurement, and bioimpedance spectroscopy (BIS). Subjects then returned for daily dosing or remained overnight locally until Day 5, and thereafter, had visits at weekly intervals until a maintenance dose of 300 μg was established. Thus, Cotadutide or placebo was administered at the study site by study personal for the first four doses and on site on Days 5, 12, 19, and 32. At all other times, subjects preformed dosing at home.
# Blood samples were collected to evaluate blood glucose (fasting) and HbA1c levels.
# Fasting glucose was measured from baseline (Day 1) to the end of treatment (Day 32). […] LS mean reduction of fasting glucose from baseline was more apparent in subjects in the Insulin Dose <20 U/day subgroup compared to Insulin Dose ≥20 U/day subgroup.
# [2] = test system: subjects with T2DM and renal impairment; experiment: Phase 2a: bioimpedance spectroscopy (fluid status); conditions: baseline (Day 1) to end of dosing
# Experimental: Assessment of body composition, including but not limited to extracellular and intracellular volume and total body water, were conducted with bioimpedance spectroscopy using the SFB7 device produced by ImpediMed. Bioimpedance spectroscopy measures were not conducted in any subject with a pacemaker or implantable electronic device, e.g., an implantable cardiac defibrillator, as described in the manufacturer's instructions.
# Bioimpedance spectroscopy was performed prior to dosing on Visit 4 (Day 1; Baseline) and following dosing on Visits 6 (Day 5), 7 (Day 12), 8 (Day 19), and 9 (Day 32). Subjects were to void their bladder and abstain from exercising 2 hours prior to the assessment. The subjects laid in a supine position 5 minutes before the measurement, while not touching any metal surfaces. The subjects' limbs were not crossed, the legs were completely separated, and the arms were not to touch the torso. For subjects who could not effectively separate their inner thighs, insulating material (e.g., a towel) may have been between the legs. The bioimpedance spectroscopy was set to make three repeat measurements. The subject was to remain still and relaxed during the measurement. The points of contact for the electrodes were marked on the subject's skin and the same positions used at all occasions. […]
# [3] = Phase 2a: pharmacokinetics in plasma (LC/MS-MS)
# Experimental: Blood was collected to evaluate to pharmacokinetics (PK) of Cotadutide in plasma. The PK was measured using a validated liquid chromatography-tandem mass spectrometry (LC/MS-MS) method.
# Pharmacokinetic characterization of Cotadutide at 300 μg was obtained using full PK profiles collected during the last day of dosing at 300 μg (Day 32). Additional Ctrough concentrations were collected through the study duration to check exposure.
# [4] = test system: subjects with T2DM and renal impairment; experiment: Phase 2a: anti-drug antibody (ADA) screening assay
# Experimental: Blood samples were collected to evaluate anti-drug antibody (ADA) response to Cotadutide. A screening assay in the form of a traditional ligand-binding “birding” assay using electrochemiluminescence was used to determine ADA-positive samples.
# Development of ADA and titres (in any subjects testing positive) were assessed (As-treated population). No subjects tested positive for ADA at baseline. A total of 2 subjects (4.9%) were ADA positive post-baseline (both subjects [9.5%] in the Cotadutide dose group). […] 1 subject was ADA positive at Day 12 (titer ≤5) but negative at subsequent visits. One subject was ADA positive at Day 32 (titer=2560) and remained positive at the Day 60 follow-up visit (titer=160); at 6 months after their last visit; the antibody titer was 10, and therefore, no additional follow-up was deemed necessary for this subject.
compound,measurement,setting,value
CCCCCCCCCCCCCCCC(=O)N[C@@H](CCC(=O)NCCCC[C@H](NC(=O)[C@H](CC(=O)O)NC(=O)[C@H](CO)NC(=O)[C@@H](NC(=O)[C@H](Cc1ccccc1)NC(=O)[C@@H](NC(=O)CNC(=O)[C@H](CCC(N)=O)NC(=O)[C@H](CO)NC(=O)[C@@H](N)Cc1c[nH]cn1)[C@@H](C)O)[C@@H](C)O)C(=O)N[C@@H](CO)C(=O)N[C@@H](CCC(=O)O)C(=O)N[C@@H](Cc1ccc(O)cc1)C(=O)N[C@@H](CC(C)C)C(=O)N[C@@H](CC(=O)O)C(=O)N[C@@H](CO)C(=O)N[C@@H](CCC(=O)O)C(=O)N[C@@H](CCCNC(=N)N)C(=O)N[C@@H](C)C(=O)N[C@@H](CCCNC(=N)N)C(=O)N[C@@H](CC(=O)O)C(=O)N[C@@H](Cc1ccccc1)C(=O)N[C@H](C(=O)N[C@@H](C)C(=O)N[C@@H](Cc1c[nH]c2ccccc12)C(=O)N[C@@H](CC(C)C)C(=O)N[C@@H](CCC(=O)O)C(=O)N[C@@H](C)C(=O)NCC(=O)NCC(=O)O)C(C)C)C(=O)O [Cotadutide],Fasting Glucose LS Mean Change,[1]; Insulin Dose < 20 U/day,-32.24 mg/dL
same,Fasting Glucose LS Mean Change,[1]; Insulin Dose ≥ 20 U/day,-12.28 mg/dL
same,Fasting Glucose LS Mean Change,[1]; Total,-19.55 mg/dL
same,"Fasting Glucose Change from Baseline, Mean",[1]; Insulin Dose < 20 U/day,-31.79 mg/dL
same,"Fasting Glucose Change from Baseline, Median",[1]; Insulin Dose < 20 U/day,-39.64 mg/dL
same,Fasting Glucose Difference in LS Mean Change (vs Placebo),[1]; Insulin Dose < 20 U/day,-28.11 mg/dL
same,"Fasting Glucose Change from Baseline, Mean",[1]; Insulin Dose ≥ 20 U/day,-9.39 mg/dL
same,"Fasting Glucose Change from Baseline, Median",[1]; Insulin Dose ≥ 20 U/day,-9.01 mg/dL
same,Fasting Glucose Difference in LS Mean Change (vs Placebo),[1]; Insulin Dose ≥ 20 U/day,-15.02 mg/dL
same,"Fasting Glucose Change from Baseline, Mean",[1]; Total,-17.64 mg/dL
same,"Fasting Glucose Change from Baseline, Median",[1]; Total,-19.82 mg/dL
same,Fasting Glucose Difference in LS Mean Change (vs Placebo),[1]; Total,-20.15 mg/dL
same,"Fasting Glucose, Day 32, Mean",[1]; Insulin Dose < 20 U/day,125.75 mg/dL
same,"Fasting Glucose, Day 32, Median",[1]; Insulin Dose < 20 U/day,125.24 mg/dL
same,"Fasting Glucose, Day 32, Mean",[1]; Insulin Dose ≥ 20 U/day,159.03 mg/dL
same,"Fasting Glucose, Day 32, Median",[1]; Insulin Dose ≥ 20 U/day,141.91 mg/dL
same,"Fasting Glucose, Day 32, Mean",[1]; Total,146.77 mg/dL
same,"Fasting Glucose, Day 32, Median",[1]; Total,139.66 mg/dL
same,"changes in total body water volume, intracellular fluid volume, or extracellular fluid volume vs placebo",[2],no clinically meaningful differences
same,AUC,"[3]; human, plasma, 300 ug, Day 32, 300 μg SC, geometric mean, N = 16",286 ng·h/mL
same,Cmax,"[3]; human, plasma, 300 ug, Day 32, 300 μg SC, geometric mean, N = 18",16.9 ng/mL
same,Tmax,"[3]; human, plasma, 300 ug, Day 32, 300 μg SC, median, N = 18",5.6 h
same,PK linearity for Ctrough,[3]; repeat daily SC doses 50 to 300 μg,linear PK
same,"ADA titer, one subject",[4]; 6 months after last visit,10
same,"subjects ADA positive post-baseline, number",[4]; As-treated population,2 subjects
same,"subjects ADA positive post-baseline, percentage of dose group",[4]; As-treated population,9.5%
same,"ADA titer, one subject","[4]; Day 12, negative at subsequent visits",≤ 5
same,"ADA titer, one subject",[4]; Day 32,2560
same,"ADA titer, one subject",[4]; Day 60 follow-up visit,160
same,treatment-boosted ADA,[4]; baseline titer boosted 4-fold or higher,No subjects
